Measurements as given in US20240150365A1 (Hotspot Therapeutics, Inc., priority 2022, published 2024).
Where two headings read alike, the source gives them in different places.

Key:
NF-kB = NF-kB reporter assay in Jurkat cells stimulated with aCD3/aCD28/PMA; format: cell-based; settings: Homo sapiens, Jurkat, read-out: NF-kB Reporter Assay IC50
Outline: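 Jurkat cells (25,000/well, serum-free RPMI 1640) preincubated 1 hr at 37° C with serially diluted compound, then stimulated with aCD3/aCD28/PMA (final 5 μg/mL, 5 μg/mL, 0.03 μg/mL) for 4 hr. Reporter luminescence read with One-Glo; IC50 derived.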

MALT1 = biological target: T1, MALT1 (Homo sapiens, UniProt Q9UDY8); assay: MALT-1 Fluorogenic Peptide Cleavage Assay (MALT1 inhibition assay); format: biochemical; settings: Avi-tagged FL MALT-1, Ac-LRSR-AMC peptide substrate, 30 min pre-incubation, 90 min reaction
T1 construct: Avi-tagged FL MALT-1 (Pharmaron, stored at −70° C.); Avi tag
T1 sequence (Q9UDY8 1-824): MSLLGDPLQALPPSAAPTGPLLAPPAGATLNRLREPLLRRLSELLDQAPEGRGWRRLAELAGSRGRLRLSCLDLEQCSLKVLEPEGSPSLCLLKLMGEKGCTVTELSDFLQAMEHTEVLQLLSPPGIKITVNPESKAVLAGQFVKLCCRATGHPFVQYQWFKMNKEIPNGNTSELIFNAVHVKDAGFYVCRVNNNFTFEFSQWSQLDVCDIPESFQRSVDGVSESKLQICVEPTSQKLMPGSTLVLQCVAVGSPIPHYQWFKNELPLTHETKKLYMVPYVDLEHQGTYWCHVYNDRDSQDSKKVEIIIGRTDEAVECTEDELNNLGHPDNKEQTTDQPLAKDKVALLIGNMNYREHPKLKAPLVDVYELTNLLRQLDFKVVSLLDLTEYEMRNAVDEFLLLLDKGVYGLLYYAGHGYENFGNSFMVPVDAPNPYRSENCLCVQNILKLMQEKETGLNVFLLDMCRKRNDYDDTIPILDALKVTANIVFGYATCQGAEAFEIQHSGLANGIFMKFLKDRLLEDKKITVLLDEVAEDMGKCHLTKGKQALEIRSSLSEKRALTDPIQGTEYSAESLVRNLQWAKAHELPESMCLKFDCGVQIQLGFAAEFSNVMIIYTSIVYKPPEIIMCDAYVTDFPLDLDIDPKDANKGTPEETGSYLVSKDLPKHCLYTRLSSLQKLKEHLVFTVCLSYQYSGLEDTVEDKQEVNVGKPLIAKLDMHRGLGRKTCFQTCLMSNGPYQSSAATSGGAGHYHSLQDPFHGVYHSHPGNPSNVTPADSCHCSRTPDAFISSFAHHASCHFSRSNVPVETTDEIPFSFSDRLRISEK
Outline: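 Avi-tagged full-length MALT1 pre-incubated 30 min with compound (2% DMSO final), then cleavage of Ac-LRSR-AMC followed over 90 min at room temperature. AMC fluorescence read at 342/441 nm; % inhibition fitted to sigmoidal curves for IC50.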

[1] = Jurkat cells, 1 hr compound incubation, aCD3/aCD28/PMA stimulation 4 hr, One-Glo readout

COc1ccc2cnn(C)c2c1NS(=O)(=O)c1ccc(-n2cc(C)n(C)c2=O)nc1 [Example I-202, 6-(3,4-Dimethyl-2-Oxo-2,3-Dihydro-1H-Imidazol-1-yl)-N-(6-Methoxy-1-Methyl-1H-Indazol-7-yl)Pyridine-3-Sulfonamide]
IC50 (NF-kB; [1]): < 400 nM | IC50 (MALT1): 400 to 1000 nM

COc1ccc(Cc2ccc3c(c2N)c(=O)n(S(=O)(=O)c2ccc(-n4cc(C(F)(F)F)cn4)nc2)n3C)cc1 [Example I-203]
IC50 (NF-kB; [1]): < 400 nM | IC50 (MALT1): > 2500 nM

COc1ncc2cnn(C)c2c1NS(=O)(=O)c1ccc(-c2cc(C(F)F)n[nH]2)nc1 [Example I-204, 6-(3-(Difluoromethyl)-1H-Pyrazol-5-yl)-N-(6-Methoxy-1-Methyl-1H-Pyrazolo[4,3-C]Pyridin-7-yl)Pyridine-3-Sulfonamide]
IC50 (NF-kB; [1]): 1000 to 2500 nM | IC50 (MALT1): < 400 nM

COc1ncc2cnn(C)c2c1NS(=O)(=O)c1ccc(-c2cc(C3CC3)n[nH]2)nc1 [Example I-205, 6-(3-Cyclopropyl-1H-Pyrazol-5-yl)-N-(6-Methoxy-1-Methyl-1H-Pyrazolo[4,3-C]Pyridin-7-yl)Pyridine-3-Sulfonamide]
IC50 (NF-kB; [1]): 1000 to 2500 nM | IC50 (MALT1): 1000 to 2500 nM

[2H]C([2H])([2H])n1ncc2ccc(OC)c(NS(=O)(=O)c3ccc(-n4cc(C)cn4)nc3)c21 [Example I-206, N-(6-Methoxy-1-(Methyl-D3)-1H-Indazol-7-yl)-6-(4-Methyl-1H-Pyrazol-1-yl)Pyridine-3-Sulfonamide]
IC50 (NF-kB; [1]): < 400 nM | IC50 (MALT1): < 400 nM

Cn1ncc2cccc(NS(=O)(=O)c3ccc(-n4ccc(C5CC5)n4)nc3)c21 [Example I-207, 6-(3-Cyclopropyl-1H-Pyrazol-1-yl)-N-(1-Methyl-1H-Indazol-7-yl)Pyridine-3-Sulfonamide]
IC50 (NF-kB; [1]): < 400 nM | IC50 (MALT1): 1000 to 2500 nM

Cn1ncc2cccc(NS(=O)(=O)c3ccc(-n4cc(C5CC5)cn4)nc3)c21 [Example I-208, 6-(4-Cyclopropyl-1H-Pyrazol-1-yl)-N-(1-Methyl-1H-Indazol-7-yl)Pyridine-3-Sulfonamide]
IC50 (NF-kB; [1]): < 400 nM | IC50 (MALT1): 1000 to 2500 nM

Cn1ccn(-c2ccc(S(=O)(=O)Nc3cccc4cnn(C)c34)cn2)c1=O [Example I-209, N-(1-Methyl-1H-Indazol-7-yl)-6-(3-Methyl-2-Oxo-2,3-Dihydro-1H-Imidazol-1-yl)Pyridine-3-Sulfonamide]
IC50 (NF-kB; [1]): < 400 nM | IC50 (MALT1): > 2500 nM

COc1ccc(-c2ccc(S(=O)(=O)Nc3cccc4cnn(C)c34)cn2)cn1 [Example I-210, 6′-Methoxy-N-(1-Methyl-1H-Indazol-7-yl)-[2,3′-Bipyridine]-5-Sulfonamide]
IC50 (NF-kB; [1]): < 400 nM | IC50 (MALT1): > 2500 nM

COc1ncc2cnn(C)c2c1NS(=O)(=O)c1ccc(-n2nccc2C(F)(F)F)nc1 [Example I-211, N-(6-Methoxy-1-Methyl-1H-Pyrazolo[4,3-C]Pyridin-7-yl)-6-(5-(Trifluoromethyl)-1H-Pyrazol-1-yl)Pyridine-3-Sulfonamide]
IC50 (NF-kB; [1]): 400 to 1000 nM | IC50 (MALT1): > 2500 nM

[2H]C([2H])([2H])n1ncc2ccc(OC)c(NS(=O)(=O)c3ccc(-n4cc(Cl)cn4)nc3)c21 [Example I-212, 6-(4-Chloro-1H-Pyrazol-1-yl)-N-(6-Methoxy-1-(Methyl-D3)-1H-Indazol-7-yl)Pyridine-3-Sulfonamide]
IC50 (NF-kB; [1]): < 400 nM | IC50 (MALT1): < 400 nM

[2H]C([2H])([2H])Oc1ccc2cnn(C)c2c1NS(=O)(=O)c1ccc(-n2cc(Cl)cn2)nc1 [Example I-213, 6-(4-Chloro-1H-Pyrazol-1-yl)-N-(6-(Methoxy-D3)-1-Methyl-1H-Indazol-7-yl)Pyridine-3-Sulfonamide]
IC50 (NF-kB; [1]): < 400 nM | IC50 (MALT1): < 400 nM

Cn1ncc2cccc(NS(=O)(=O)c3ccc(-c4cnc(C(F)(F)F)s4)nc3)c21 [Example I-214, N-(1-Methyl-1H-Indazol-7-yl)-6-(2-(Trifluoromethyl)Thiazol-5-yl)Pyridine-3-Sulfonamide]
IC50 (NF-kB; [1]): < 400 nM | IC50 (MALT1): 400 to 1000 nM

COCCn1ncc2cccc(NS(=O)(=O)c3ccc(-n4ccc(C(C)C)n4)nc3)c21 [Example I-215, 6-(3-isopropyl-1H-pyrazol-1-yl)-N-(1-(2-methoxyethyl)-1H-indazol-7-yl)pyridine-3-sulfonamide]
IC50 (NF-kB; [1]): > 2500 nM | IC50 (MALT1): > 2500 nM

COCCn1ncc2cccc(NS(=O)(=O)c3ccc(-n4nccc4C4CC4)nc3)c21 [Example I-216, 6-(5-Cyclopropyl-1H-Pyrazol-1-yl)-N-(1-(2-Methoxyethyl)-1H-Indazol-7-yl)Pyridine-3-Sulfonamide]
IC50 (NF-kB; [1]): > 2500 nM | IC50 (MALT1): > 2500 nM

COCCn1ncc2cccc(NS(=O)(=O)c3ccc(-n4cc(C)cn4)nc3)c21 [Example I-217, N-(1-(2-Methoxyethyl)-1H-Indazol-7-yl)-6-(4-Methyl-1H-Pyrazol-1-yl)Pyridine-3-Sulfonamide]
IC50 (NF-kB; [1]): > 2500 nM | IC50 (MALT1): > 2500 nM

COCCn1ncc2cccc(NS(=O)(=O)c3ccc(-c4cnn(C)c4C)nc3)c21 [Example I-218, 6-(1,5-Dimethyl-1H-Pyrazol-4-yl)-N-(1-(2-Methoxyethyl)-1H-Indazol-7-yl)Pyridine-3-Sulfonamide]
IC50 (NF-kB; [1]): > 2500 nM | IC50 (MALT1): > 2500 nM

Cn1ncc2cccc(NS(=O)(=O)c3ccc(-c4ccc(Cl)nc4)nc3)c21 [Example I-219, 6′-Chloro-N-(1-Methyl-1H-Indazol-7-yl)-[2,3′-Bipyridine]-5-Sulfonamide]
IC50 (NF-kB; [1]): < 400 nM | IC50 (MALT1): > 2500 nM

Cn1ncc2cccc(NS(=O)(=O)c3ccc(-c4cccnc4Cl)nc3)c21 [Example I-220, 2′-Chloro-N-(1-Methyl-1H-Indazol-7-yl)-[2,3′-Bipyridine]-5-Sulfonamide]
IC50 (NF-kB; [1]): 400 to 1000 nM | IC50 (MALT1): > 2500 nM

CN(C)c1ncccc1-c1ccc(S(=O)(=O)Nc2cccc3cnn(C)c23)cn1 [Example I-221, 2′-(Dimethylamino)-N-(1-Methyl-1H-Indazol-7-yl)-[2,3′-Bipyridine]-5-Sulfonamide]
IC50 (NF-kB): 1000 to 2500 nM | IC50 (MALT1): > 2500 nM

COc1ccc2cnn(C)c2c1NS(=O)(=O)c1ccc(N2CCOC2=O)nc1 [Example I-222, N-(6-Methoxy-1-Methyl-1H-Indazol-7-yl)-6-(2-Oxooxazolidin-3-yl)Pyridine-3-Sulfonamide]
IC50 (NF-kB; [1]): < 400 nM | IC50 (MALT1): > 2500 nM

COc1ccc2cnn(C)c2c1NS(=O)(=O)c1ccc(N2CC(C)(C)OC2=O)nc1 [Example I-223, 6-(5,5-Dimethyl-2-Oxooxazolidin-3-yl)-N-(6-Methoxy-1-Methyl-1H-Indazol-7-yl)Pyridine-3-Sulfonamide]
IC50 (NF-kB; [1]): < 400 nM | IC50 (MALT1): > 2500 nM

Cn1ncc2cccc(NS(=O)(=O)c3ccc(N4CC(C)(C)OC4=O)nc3)c21 [Example I-224, 6-(5,5-Dimethyl-2-Oxooxazolidin-3-yl)-N-(1-Methyl-1H-Indazol-7-yl)Pyridine-3-Sulfonamide]
IC50 (NF-kB; [1]): < 400 nM | IC50 (MALT1): > 2500 nM

COc1ccc2cnn(C)c2c1NS(=O)(=O)c1ccc(N2CCN(C)C2=O)nc1 [Example I-225, N-(6-Methoxy-1-Methyl-1H-Indazol-7-yl)-6-(3-Methyl-2-Oxoimidazolidin-1-yl)Pyridine-3-Sulfonamide]
IC50 (NF-kB; [1]): < 400 nM | IC50 (MALT1): 400 to 1000 nM

CN1CCN(c2ccc(S(=O)(=O)Nc3cccc4cnn(C)c34)cn2)C1=O [Example I-226, N-(1-Methyl-1H-Indazol-7-yl)-6-(3-Methyl-2-Oxoimidazolidin-1-yl)Pyridine-3-Sulfonamide]
IC50 (NF-kB; [1]): < 400 nM | IC50 (MALT1): > 2500 nM

Cn1ncc2cccc(NS(=O)(=O)c3ccc(-n4ncc5c4CCCC5)nc3)c21 [Example I-227, N-(1-Methyl-1H-Indazol-7-yl)-6-(4,5,6,7-Tetrahydro-1H-Indazol-1-yl)Pyridine-3-Sulfonamide]
IC50 (NF-kB; [1]): < 400 nM | IC50 (MALT1): 1000 to 2500 nM

Cn1cc(-c2ccc(S(=O)(=O)Nc3cccc4cnn(C)c34)cn2)nc1C(F)(F)F [Example I-228, N-(1-Methyl-1H-Indazol-7-yl)-6-(1-Methyl-2-(Trifluoromethyl)-1H-Imidazol-4-yl)Pyridine-3-Sulfonamide]
IC50 (NF-kB; [1]): < 400 nM | IC50 (MALT1): 1000 to 2500 nM

[2H]C([2H])([2H])n1ncc2ccc(OC)c(NS(=O)(=O)c3ccc(-n4cc(C5CC5)cn4)nc3)c21 [Example I-229, 6-(4-Cyclopropyl-1H-Pyrazol-1-yl)-N-(6-Methoxy-1-(Methyl-D3)-1H-Indazol-7-yl)Pyridine-3-Sulfonamide]
IC50 (NF-kB; [1]): < 400 nM | IC50 (MALT1): < 400 nM
